The NIST ThermoML archive (doi:10.1021/je049595u)

What was measured:
[1] = Molar enthalpy of transition or fusion; details: Crystal
[2] = molar heat capacity at saturation pressure

Cc1ccc2ccccc2n1 [2-methylquinoline]
Details | mass density [kg/m3] | molar heat capacity [J/K/mol] | vapor or sublimation pressure [kPa]
319.99 K, Liquid, Inclined piston gauge | – | – | 0.0315
329.98 K, Liquid, Inclined piston gauge | – | – | 0.063
339.99 K, Liquid, Inclined piston gauge | – | – | 0.1198
349.98 K, Liquid, Inclined piston gauge | – | – | 0.2174
364.98 K, Liquid, Inclined piston gauge | – | – | 0.4962
374.98 K, Liquid, Inclined piston gauge | – | – | 0.8233
384.97 K, Liquid, Inclined piston gauge | – | – | 1.323
394.24 K, Liquid, Twin ebulliometer | – | – | 2
394.97 K, Liquid, Inclined piston gauge | – | – | 2.066
404.97 K, Liquid, Inclined piston gauge | – | – | 3.141
411.02 K, Liquid, Twin ebulliometer | – | – | 4
418.53 K, Liquid, Twin ebulliometer | – | – | 5.333
429.68 K, Liquid, Twin ebulliometer | – | – | 7.999
438.05 K, Liquid, Twin ebulliometer | – | – | 10.67
444.81 K, Liquid, Twin ebulliometer | – | – | 13.33
451.84 K, Liquid, Twin ebulliometer | – | – | 16.66
457.68 K, Liquid, Twin ebulliometer | – | – | 19.93
465.36 K, Liquid, Twin ebulliometer | – | – | 25.02
473.1 K, Liquid, Twin ebulliometer | – | – | 31.18
480.89 K, Liquid, Twin ebulliometer | – | – | 38.56
488.72 K, Liquid, Twin ebulliometer | – | – | 47.38
496.61 K, Liquid, Twin ebulliometer | – | – | 57.82
504.55 K, Liquid, Twin ebulliometer | – | – | 70.12
512.53 K, Liquid, Twin ebulliometer | – | – | 84.53
520.57 K, Liquid, Twin ebulliometer | – | – | 101.33
528.66 K, Liquid, Twin ebulliometer | – | – | 120.79
536.8 K, Liquid, Twin ebulliometer | – | – | 143.25
544.98 K, Liquid, Twin ebulliometer | – | – | 169.02
553.22 K, Liquid, Twin ebulliometer | – | – | 198.49
561.5 K, Liquid, Twin ebulliometer | – | – | 232.02
569.83 K, Liquid, Twin ebulliometer | – | – | 270.02
762.9 K, Gas, Measured as part of TC determination by DSC | 163.3 | – | –
773.9 K, Liquid, Measured as part of TC determination by DSC | 410.8 | – | –
775.2 K, Gas, Measured as part of TC determination by DSC | 236.6 | – | –
775.9 K, Liquid, Measured as part of TC determination by DSC | 355.4 | – | –
777.9 K, Gas, Measured as part of TC determination by DSC | 292.9 | – | –
[2], 460 K, Liquid | – | 291.16 | –
[2], 480 K, Liquid | – | 299.73 | –
[2], 500 K, Liquid | – | 308.3 | –
[2], 520 K, Liquid | – | 316.87 | –
[2], 540 K, Liquid | – | 325.39 | –
[2], 560 K, Liquid | – | 333.78 | –
[2], 580 K, Liquid | – | 341.97 | –
[2], 600 K, Liquid | – | 349.93 | –
[2], 620 K, Liquid | – | 357.61 | –
[2], 640 K, Liquid | – | 365.01 | –
[2], 660 K, Liquid | – | 372.23 | –
[2], 680 K, Liquid | – | 379.58 | –
[2], 700 K, Liquid | – | 387.75 | –

Details | Critical temperature, Liquid [K] | mass density, 323.14 K [kg/m3] | mass density, 348.14 K [kg/m3] | mass density, 373.12 K [kg/m3] | mass density, 398.12 K [kg/m3] | mass density, 423.11 K [kg/m3] | mass density, 448.11 K [kg/m3] | mass density, 473.11 K [kg/m3] | mass density, 498.11 K [kg/m3] | mass density, 523.11 K [kg/m3]
DTA | 778 | – | – | – | – | – | – | – | – | –
Liquid | – | 1035.2 | 1015.9 | 996.1 | 973.9 | 952.8 | 931.9 | 910.8 | 888.8 | 865.1

Details | Molar enthalpy of transition or fusion [kcal/mol] | Triple point temperature [K]
Crystal | – | 270.48
[1] | 2.992 | –

molar heat capacity [J/K/mol], [2], Vacuum adiabatic calorimetry
Details | Crystal | Liquid
5 K | 0.46 | –
5.565 K | 0.62 | –
6.404 K | 0.956 | –
7.354 K | 1.4 | –
8.354 K | 1.96 | –
9.372 K | 2.64 | –
10 K | 3.14 | –
10.39 K | 3.48 | –
11.53 K | 4.41 | –
12.8 K | 5.65 | –
14.21 K | 7.09 | –
15.75 K | 8.78 | –
17.46 K | 10.78 | –
19.36 K | 13.04 | –
20 K | 13.79 | –
21.49 K | 15.56 | –
23.83 K | 18.39 | –
26.43 K | 21.5 | –
29.31 K | 24.82 | –
30 K | 25.6 | –
32.52 K | 28.38 | –
36.12 K | 32.14 | –
39.68 K | 35.64 | –
40 K | 35.96 | –
43.66 K | 39.34 | –
48.56 K | 43.53 | –
50 K | 44.72 | –
52.54 K | 46.74 | –
53.49 K | 47.45 | –
53.98 K | 47.92 | –
57.46 K | 50.56 | –
58.64 K | 51.46 | –
60 K | 52.34 | –
60.03 K | 52.29 | –
63.2 K | 54.47 | –
64.47 K | 55.29 | –
69.56 K | 58.68 | –
70 K | 58.93 | –
76.52 K | 62.82 | –
80 K | 64.8 | –
84.08 K | 67.08 | –
89.02 K | 69.74 | –
90 K | 70.27 | –
92.31 K | 71.48 | –
97.21 K | 73.97 | –
100 K | 75.42 | –
101.28 K | 76.06 | –
106.32 K | 78.59 | –
110.83 K | 80.82 | –
116.09 K | 83.37 | –
120 K | 85.27 | –
125.97 K | 88.15 | –
135.92 K | 92.98 | –
140 K | 94.96 | –
145.89 K | 97.82 | –
155.92 K | 102.78 | –
160 K | 104.8 | –
166.03 K | 107.81 | –
176.22 K | 112.93 | –
180 K | 114.86 | –
187.41 K | 118.71 | –
190.57 K | 120.24 | –
199.53 K | 125.07 | –
200 K | 125.32 | –
205.56 K | 128.27 | –
211.51 K | 131.45 | –
220 K | 135.9 | –
222.27 K | 136.99 | –
223.47 K | 137.78 | –
223.49 K | 138.03 | –
235.04 K | 144.29 | –
235.46 K | 144.65 | –
239.04 K | 146.8 | –
240 K | 147.3 | –
241.52 K | 148.31 | –
247.49 K | 151.95 | –
250 K | – | 205.2
250.7 K | 154.08 | –
251.78 K | – | 205.82
256.02 K | – | 207.51
257.75 K | 159.11 | –
259.67 K | 160.66 | –
260 K | 160.12 | 209.03
261.22 K | 161.55 | –
263.55 K | – | 210.39
270.48 K | 167.45 | 212.97
272.7 K | – | 213.77
277.13 K | – | 215.45
278.52 K | – | 216.02
280 K | – | 216.58
285.4 K | – | 218.72
286.61 K | – | 219.19
294.19 K | – | 222.16
298.15 K | – | 223.78
300 K | – | 224.52
300.52 K | – | 224.72
310.63 K | – | 228.85
320 K | – | 232.73
327.13 K | – | 235.7
340 K | – | 241.04
343.64 K | – | 242.54
360 K | – | 249.4
360.17 K | – | 249.47
376.73 K | – | 256.39
380 K | – | 257.77
393.31 K | – | 263.29
400 K | – | 266.05
409.82 K | – | 270.1
420 K | – | 274.27
426.33 K | – | 276.86
439.48 K | – | 282.23
440 K | – | 282.48
